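Where inhibition never reached the appropriate level, the endpoint shown equals the highest concentration tested. Otherwise, values were interpolated linearly from a five-concentration, 48-hour dose response in 96-well plates. GI50 marks 50% less growth. TGI marks complete inhibition of growth.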
How the values were obtained:
Assay in all cases: inhibition of tumour cell growth, NCI panel, 48 h
EKVX NSCLC = tested on: EKVX NSCLC
UACC-62 melanoma = tested on: UACC-62 melanoma
NCI-H23 lung = tested on: NCI-H23 lung
IGROV1 ovarian = tested on: IGROV1 ovarian
HCT-15 colon = tested on: HCT-15 colon
RXF 393 renal = tested on: RXF 393 renal
COLO 205 colon = tested on: COLO 205 colon
SW-620 colon = tested on: SW-620 colon
NCI-H522 lung = tested on: NCI-H522 lung
ACHN renal = tested on: ACHN renal

CCC(=O)Nc1ccc(N2C(=O)/C(=C/c3ccc(OC)cc3)N=C2c2ccccc2)cc1
GI50 (EKVX NSCLC): 42.9 µM
TGI (EKVX NSCLC): > 50 µM
GI50 (UACC-62 melanoma): 3.67 µM
TGI (UACC-62 melanoma): 17.7 µM
GI50 (NCI-H23 lung): 13.3 µM
TGI (NCI-H23 lung): > 50 µM
GI50 (IGROV1 ovarian): 14.1 µM
TGI (IGROV1 ovarian): > 50 µM
GI50 (HCT-15 colon): 2.77 µM
TGI (HCT-15 colon): > 50 µM
GI50 (RXF 393 renal): 11.3 µM
TGI (RXF 393 renal): > 50 µM
GI50 (COLO 205 colon): 9.23 µM
TGI (COLO 205 colon): > 50 µM
GI50 (SW-620 colon): 1.38 µM
TGI (SW-620 colon): > 50 µM
GI50 (NCI-H522 lung): 48.5 µM
TGI (NCI-H522 lung): > 50 µM
GI50 (ACHN renal): 5.62 µM
TGI (ACHN renal): 16 µM

COc1cc(C(=O)c2cc(C)c3[nH]c4ccc(O)cc4c3c2C)cc(OC)c1OC
GI50 (EKVX NSCLC): 0.0466 µM
TGI (EKVX NSCLC): > 100 µM
GI50 (UACC-62 melanoma): < 0.01 µM
TGI (UACC-62 melanoma): > 100 µM
GI50 (NCI-H23 lung): 0.0335 µM
TGI (NCI-H23 lung): > 40 µM
GI50 (IGROV1 ovarian): 0.0169 µM
TGI (IGROV1 ovarian): 20.5 µM
GI50 (HCT-15 colon): 0.0196 µM
TGI (HCT-15 colon): > 100 µM
GI50 (RXF 393 renal): < 0.01 µM
TGI (RXF 393 renal): 3.11 µM
GI50 (COLO 205 colon): 0.0298 µM
TGI (COLO 205 colon): 0.11 µM
GI50 (SW-620 colon): < 0.0129 µM
TGI (SW-620 colon): > 100 µM
GI50 (NCI-H522 lung): < 0.01 µM
TGI (NCI-H522 lung): 2.21 µM
GI50 (ACHN renal): < 0.0128 µM
TGI (ACHN renal): > 100 µM

N#CNc1nc(N)c(-c2ccc(Cl)cc2)c(C(=O)Nc2nccs2)n1
TGI (EKVX NSCLC): > 100 µM
TGI (UACC-62 melanoma): > 100 µM
TGI (NCI-H23 lung): > 100 µM
TGI (IGROV1 ovarian): > 100 µM
TGI (HCT-15 colon): > 100 µM
TGI (RXF 393 renal): > 100 µM
TGI (SW-620 colon): > 100 µM
TGI (NCI-H522 lung): > 100 µM
TGI (ACHN renal): > 100 µM

N#CC1(C#N)C(c2ccccc2)C=CC12OCCCO2 (stereo unspecified)
TGI (EKVX NSCLC): > 100 µM
TGI (UACC-62 melanoma): > 100 µM
TGI (NCI-H23 lung): 91.4 µM
TGI (IGROV1 ovarian): > 100 µM
TGI (RXF 393 renal): 49.2 µM
TGI (COLO 205 colon): 93.6 µM
TGI (SW-620 colon): > 100 µM
TGI (NCI-H522 lung): 32.6 µM
TGI (ACHN renal): > 100 µM

C[C@@H]1O[C@@H](O[C@@H]2[C@@H](O)[C@H](OCCc3ccc(O)c(O)c3)O[C@H](CO)[C@H]2OC(=O)/C=C/c2ccc(O)c(O)c2)[C@H](O)[C@H](OC2OC[C@](O)(CO)[C@H]2O)[C@H]1O (stereo partly specified)
GI50 (EKVX NSCLC): 63.9 µM
TGI (EKVX NSCLC): > 100 µM
GI50 (UACC-62 melanoma): > 100 µM
TGI (UACC-62 melanoma): > 100 µM
GI50 (IGROV1 ovarian): > 100 µM
TGI (IGROV1 ovarian): > 100 µM
GI50 (HCT-15 colon): > 100 µM
TGI (HCT-15 colon): > 100 µM
GI50 (RXF 393 renal): 72 µM
TGI (RXF 393 renal): > 100 µM
GI50 (COLO 205 colon): > 100 µM
TGI (COLO 205 colon): > 100 µM
GI50 (SW-620 colon): 22.7 µM
TGI (SW-620 colon): 52.8 µM
GI50 (NCI-H522 lung): > 100 µM
TGI (NCI-H522 lung): > 100 µM
GI50 (ACHN renal): > 100 µM
TGI (ACHN renal): > 100 µM

COc1cc(-c2nn(-c3cccc(NC(=O)CCN4CCN(Cc5ccccc5)CC4)c3)cc2-c2ccncc2)ccc1Cl
GI50 (EKVX NSCLC): 1.6 µM
TGI (EKVX NSCLC): 17.5 µM
GI50 (UACC-62 melanoma): 1.13 µM
TGI (UACC-62 melanoma): 2.7 µM
GI50 (NCI-H23 lung): 1.73 µM
TGI (NCI-H23 lung): 9.26 µM
GI50 (IGROV1 ovarian): 0.954 µM
TGI (IGROV1 ovarian): 7.88 µM
GI50 (HCT-15 colon): 0.635 µM
TGI (HCT-15 colon): 3.72 µM
GI50 (RXF 393 renal): 0.705 µM
TGI (RXF 393 renal): 2.28 µM
GI50 (SW-620 colon): 0.49 µM
TGI (SW-620 colon): 1.93 µM
GI50 (NCI-H522 lung): 0.359 µM
TGI (NCI-H522 lung): 1.75 µM
GI50 (ACHN renal): 1.2 µM
TGI (ACHN renal): 12.8 µM

C1CSCCSCCCSCCSCCCSCCSCCCSCCSC1
TGI (EKVX NSCLC): > 100 µM
TGI (NCI-H23 lung): > 100 µM
TGI (IGROV1 ovarian): > 100 µM
TGI (HCT-15 colon): > 100 µM
TGI (RXF 393 renal): > 100 µM
TGI (COLO 205 colon): > 100 µM
TGI (SW-620 colon): > 100 µM
TGI (NCI-H522 lung): > 100 µM
TGI (ACHN renal): > 100 µM

Cc1ccc(C2C3Cc4ccccc4C3=NN2c2ccc(S(=O)(=O)/N=c3\scc(-c4ccccc4)n3-c3ccccc3)cc2)cc1 (stereo unspecified)
GI50 (EKVX NSCLC): 21.5 µM
TGI (EKVX NSCLC): 65.7 µM
GI50 (UACC-62 melanoma): 14 µM
TGI (UACC-62 melanoma): 27.7 µM
GI50 (IGROV1 ovarian): 26.5 µM
TGI (IGROV1 ovarian): > 100 µM
GI50 (HCT-15 colon): 25.4 µM
TGI (HCT-15 colon): 79.2 µM
GI50 (RXF 393 renal): 24.8 µM
TGI (RXF 393 renal): 64.6 µM
GI50 (COLO 205 colon): 23.3 µM
TGI (COLO 205 colon): 52.1 µM
GI50 (SW-620 colon): 15.7 µM
TGI (SW-620 colon): 31.6 µM
GI50 (NCI-H522 lung): 22 µM
TGI (NCI-H522 lung): 66.8 µM
GI50 (ACHN renal): 21.6 µM
TGI (ACHN renal): 50.3 µM

CN1CCc2nc3sc(C(N)=O)c(N)c3c(-c3cccs3)c2C1
GI50 (EKVX NSCLC): 3.54 µM
TGI (EKVX NSCLC): > 100 µM
GI50 (UACC-62 melanoma): 2.38 µM
TGI (UACC-62 melanoma): 6.56 µM
GI50 (NCI-H23 lung): 2.87 µM
TGI (NCI-H23 lung): 12.6 µM
GI50 (IGROV1 ovarian): 5.16 µM
TGI (IGROV1 ovarian): > 100 µM
GI50 (HCT-15 colon): 3.31 µM
TGI (HCT-15 colon): > 100 µM
GI50 (RXF 393 renal): 1.11 µM
TGI (RXF 393 renal): 3.63 µM
GI50 (COLO 205 colon): 1.43 µM
TGI (COLO 205 colon): 3.66 µM
GI50 (SW-620 colon): 4.02 µM
TGI (SW-620 colon): > 100 µM
GI50 (NCI-H522 lung): 2.91 µM
TGI (NCI-H522 lung): 17.8 µM

COC(=O)c1cc(-c2ccc(OC)c(OC)c2)[nH]c1N/N=C/c1c(Cl)cccc1Cl
GI50 (EKVX NSCLC): 0.708 µM
TGI (EKVX NSCLC): 19.5 µM
GI50 (UACC-62 melanoma): 0.552 µM
TGI (UACC-62 melanoma): 11.2 µM
GI50 (NCI-H23 lung): 0.848 µM
TGI (NCI-H23 lung): 13 µM
GI50 (HCT-15 colon): 0.946 µM
TGI (HCT-15 colon): 24 µM
GI50 (RXF 393 renal): 0.132 µM
TGI (RXF 393 renal): 0.933 µM
GI50 (COLO 205 colon): 0.901 µM
TGI (COLO 205 colon): 4.95 µM
GI50 (SW-620 colon): 0.443 µM
TGI (SW-620 colon): 12.7 µM
GI50 (NCI-H522 lung): 0.502 µM
TGI (NCI-H522 lung): 2.51 µM
GI50 (ACHN renal): 1.18 µM
TGI (ACHN renal): 13.2 µM

O=C1OC(=O)c2c1c(-c1ccccc1)nc1ccccc21
TGI (EKVX NSCLC): > 100 µM
TGI (UACC-62 melanoma): > 100 µM
TGI (NCI-H23 lung): > 100 µM
TGI (IGROV1 ovarian): > 100 µM
TGI (HCT-15 colon): > 100 µM
TGI (RXF 393 renal): > 100 µM
TGI (COLO 205 colon): > 100 µM
TGI (SW-620 colon): > 100 µM
TGI (NCI-H522 lung): > 100 µM

From PubChem BioAssay (NCI)
